In paper PMC12371494, “Discovery of YTHDF2 Ligands by Fragment-Based Design” (ACS Bio & Med Chem Au, 2025):
Like-named read-outs stand apart in the source and are kept apart here.

Target: T1, GST-YTHDF2 (Homo sapiens, UniProt Q9Y5A9)
T1 construct: made in house
T1 sequence (Q9Y5A9 1-579): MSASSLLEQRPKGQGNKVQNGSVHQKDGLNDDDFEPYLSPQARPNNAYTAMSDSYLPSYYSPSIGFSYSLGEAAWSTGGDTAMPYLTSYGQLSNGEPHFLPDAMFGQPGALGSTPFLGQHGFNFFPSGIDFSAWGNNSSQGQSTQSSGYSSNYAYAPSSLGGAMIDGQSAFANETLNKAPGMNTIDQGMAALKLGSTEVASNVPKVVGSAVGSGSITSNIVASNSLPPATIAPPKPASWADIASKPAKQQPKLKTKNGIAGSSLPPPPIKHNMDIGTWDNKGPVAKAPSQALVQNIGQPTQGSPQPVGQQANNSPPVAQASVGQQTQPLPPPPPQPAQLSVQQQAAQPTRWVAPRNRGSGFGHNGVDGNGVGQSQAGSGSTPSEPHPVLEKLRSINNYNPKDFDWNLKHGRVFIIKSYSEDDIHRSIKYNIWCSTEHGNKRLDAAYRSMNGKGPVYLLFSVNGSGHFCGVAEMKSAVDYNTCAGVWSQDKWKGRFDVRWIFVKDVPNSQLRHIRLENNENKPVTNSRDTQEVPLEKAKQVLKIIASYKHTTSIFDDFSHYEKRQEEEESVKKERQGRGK
Test: HTRF-based binding assay, competition with m6A-oligoRNA, DF2
Settings: for Residual signal at 1 mM concentration: HTRF, 1 mM compound, relative to control, average of two technical replicates, * = interference with the assay; for LE (ligand efficiency, DF2): LE = -RT ln IC50/HAC from HTRF IC50

[1] = dose-response, competitor m6A-oligoRNA, read-out: DF2 IC50 (HTRF assay)

CC(=O)Nc1nnc(C=Cc2cccc([N+](=O)[O-])c2)s1 (mixture of isomers) [Compound S17]
Residual signal at 1 mM concentration: 77%

CC=CC=C1C(=O)NC(=S)NC1=O [Compound 1]
IC50: 19 µM | Residual signal at 1 mM concentration: 26% | LE (ligand efficiency, DF2): 0.50 kcal/(mol HAC)

Cc1ccccc1NN=C1C(=O)NC(=S)NC1=O [Compound 2]
IC50: 170 µM | Residual signal at 1 mM concentration: 12% | LE (ligand efficiency, DF2): 0.29 kcal/(mol HAC)

CNc1cc(=O)[nH]c(=O)[nH]1 [Compound 4]
Residual signal at 1 mM concentration: 18% | LE (ligand efficiency, DF2): 0.49 kcal/(mol HAC) | IC50 [1]: 250 µM

CNc1ncccc1C(N)=O [Compound 5]
Residual signal at 1 mM concentration: 88%

Cc1[nH]nc2ncnc(N)c12 [Compound 6]
Residual signal at 1 mM concentration: 80%

CN(C)c1ccc(C=C2C(=O)NC(=S)NC2=O)cc1 [Compound 7]
IC50: 21 µM | LE (ligand efficiency, DF2): 0.34 kcal/(mol HAC)

O=C1NC(=S)NC(=O)C1=NNc1cccc(C(=O)O)c1 [Compound 8]
IC50: 6 µM | Residual signal at 1 mM concentration: 5% | LE (ligand efficiency, DF2): 0.36 kcal/(mol HAC)

Cc1cccc(NC=C2C(=O)NC(=S)NC2=O)n1 [Compound 9]
IC50: 30 µM | LE (ligand efficiency, DF2): 0.34 kcal/(mol HAC)

COc1ccc(C=C2C(=O)NC(=S)NC2=O)cc1C [Compound 10]
IC50: 28 µM | Residual signal at 1 mM concentration: 48% | LE (ligand efficiency, DF2): 0.33 kcal/(mol HAC)

CC=CC=C1C(=O)NC(=O)NC1=O [Compound 11]
IC50: 29 µM | Residual signal at 1 mM concentration: 30% | LE (ligand efficiency, DF2): 0.48 kcal/(mol HAC)

COc1ccc(NC=C2C(=O)NC(=O)NC2=O)cc1 [Compound 12]
IC50: 40 µM | LE (ligand efficiency, DF2): 0.32 kcal/(mol HAC)

O=c1cn[nH]c(=S)[nH]1 [Compound 13]
Residual signal at 1 mM concentration: 5% | LE (ligand efficiency, DF2): 0.73 kcal/(mol HAC) | IC50 [1]: 53 µM

O=c1[nH]c(=S)[nH]c2n[nH]cc12 [Compound 15]
Residual signal at 1 mM concentration: 17% | LE (ligand efficiency, DF2): 0.51 kcal/(mol HAC) | IC50 [1]: 86 µM

O=c1[nH]c(=S)[nH]c2nc[nH]c12 [Compound 16]
Residual signal at 1 mM concentration: 2% | LE (ligand efficiency, DF2): 0.56 kcal/(mol HAC) | IC50 [1]: 30 µM

Cc1cc(=O)c(OCc2ccc(F)cc2)c[nH]1 [Compound S1]
Residual signal at 1 mM concentration: 31% | IC50 [1]: 310 µM

Cc1cc(O)c(OCC(=O)N=c2[nH]cc(C)s2)cn1 [Compound S6]
Residual signal at 1 mM concentration: 60%

CCSc1nnc(NC(C)=O)s1 [Compound S7]
Residual signal at 1 mM concentration: 60%

Cc1nc(O)c(C=Nc2ccc(Cl)cc2)c(O)n1 [Compound S8]
Residual signal at 1 mM concentration: 21%

CC(=O)N=c1[nH]nc(SCC(=O)NC2CCCCC2)s1 [Compound S10]
Residual signal at 1 mM concentration: 50%

COc1cc2[nH]c(=O)[nH]c(=O)c2cc1OC [Compound S12]
Residual signal at 1 mM concentration: 60%

Cc1cc(O)c2[nH]ncc2n1 [Compound S13]
Residual signal at 1 mM concentration: 62%

COC(=O)CNC(=O)COc1c[nH]c(C)cc1=O [Compound S15]
Residual signal at 1 mM concentration: 75%

C=CCc1cccc(C=Nc2c[nH]c(=O)[nH]c2=O)c1O [Compound S18]
Residual signal at 1 mM concentration: 79%

CN(C)c1cc(=O)[nH]c(=O)[nH]1 [Compound S19]
Residual signal at 1 mM concentration: 85%

O=C(Nc1nccs1)C(F)(F)F [Compound S20]
Residual signal at 1 mM concentration: 87%

Oc1ccnc(OC(F)F)c1 [Compound S21]
Residual signal at 1 mM concentration: 87%

Cc1cc(=O)c2sccc2[nH]1 [Compound S22]
Residual signal at 1 mM concentration: 89%

OCCNc1ccc(Cl)nn1 [Compound S23]
Residual signal at 1 mM concentration: > 90%

O=C(Nc1nnc[nH]1)C1CC1 [Compound S24]
Residual signal at 1 mM concentration: > 90%

CC(O)c1nc2cc(-c3cc(F)cc(Cl)c3)ccc2[nH]1 (centres unmarked) [Compound S25]
Residual signal at 1 mM concentration: > 90%

CCCc1nnc(NC(C)=O)s1 [Compound S26]
Residual signal at 1 mM concentration: > 90%

Cc1nc(O)c2sccc2n1 [Compound S27]
Residual signal at 1 mM concentration: > 90%

CCOC(=O)c1noc(C)n1 [Compound S28]
Residual signal at 1 mM concentration: > 90%

COc1cnc(Br)cc1O [Compound S29]
Residual signal at 1 mM concentration: > 90%

COc1cccc(-c2ccc3c(N)n[nH]c3n2)c1 [Compound S30]
Residual signal at 1 mM concentration: > 90%

FC(F)(F)c1cc(-c2ccc3ccccc3c2)n[nH]1 [Compound S31]
Residual signal at 1 mM concentration: > 90%

Cc1nnc(N)n(N)c1=O [Compound S32]
Residual signal at 1 mM concentration: > 90%

O=c1cc(O)cc(C(F)(F)F)[nH]1 [Compound S33]
Residual signal at 1 mM concentration: > 90%

CCc1cc(NC(=O)c2ccc(C)nc2)[nH]n1 [Compound S34]
Residual signal at 1 mM concentration: > 90%

Cc1n[nH]c(N)c1C#N [Compound S36]
Residual signal at 1 mM concentration: > 90%

N#Cc1c(C2CC2)n[nH]c1N [Compound S37]
Residual signal at 1 mM concentration: > 90%

NC(=O)c1cccnc1NCC1CC1 [Compound S39]
Residual signal at 1 mM concentration: > 90%

NCCC1C(=O)NC(=S)NC1=O [Compound S42]
IC50 [1]: 330 µM

CC1(C)C(=O)NC(=S)NC1=O [Compound S43]
Residual signal at 1 mM concentration: 11%

O=C1CC(=O)NC(=S)N1 [Compound S44]
Residual signal at 1 mM concentration: 79%

CN1C(=O)CC(=O)NC1=S [Compound S45]
Residual signal at 1 mM concentration: 75%

Cn1cccc1C=C1C(=O)NC(=S)NC1=O [Compound S46]
Residual signal at 1 mM concentration: 13%

CNC=C1C(=O)NC(=S)NC1=O [Compound S47]
IC50 [1]: 91 µM

CN(NC=C1C(=O)NC(=S)NC1=O)c1ccccc1 [Compound S49]
Residual signal at 1 mM concentration: 54%

Cc1cc(O)nc(NC=C2C(=O)NC(=S)NC2=O)n1 [Compound S50]
Residual signal at 1 mM concentration: 9% | IC50 [1]: 57 µM

CN(C)c1ccc(C=C2C(=O)NC(=S)NC2=O)o1 [Compound S51]
Residual signal at 1 mM concentration: 35%

CCOc1ccc(C=C2C(=O)NC(=S)NC2=O)cc1Cl [Compound S52]
Residual signal at 1 mM concentration: 12% | LE (ligand efficiency, DF2): 0.29 kcal/(mol HAC) | IC50 [1]: 55 µM

Cc1n[nH]c(=S)[nH]c1=O [Compound S53]
Residual signal at 1 mM concentration: 38%

O=C(CCc1n[nH]c(=S)[nH]c1=O)Nc1ccccc1 [Compound S55]
IC50 [1]: 190 µM

CCNc1cc(=O)[nH]c(=O)[nH]1 [Compound S56]
Residual signal at 1 mM concentration: 51%

CNc1ncnc2[nH]nc(C)c12 [Compound S57]
Residual signal at 1 mM concentration: 88%

O=c1[nH]c(=O)c2cn[nH]c2[nH]1 [Compound S58]
Residual signal at 1 mM concentration: 47%

O=c1[nH]c(=S)[nH]c2sc3c(c12)CCC3 [Compound S59]
Residual signal at 1 mM concentration: 35% | IC50 [1]: 53 µM

CC1CCc2c(sc3[nH]c(=S)[nH]c(=O)c23)C1 (centres unmarked) [Compound S60]
Residual signal at 1 mM concentration: 24% | IC50 [1]: 80 µM

O=c1[nH]c(=O)c2ccsc2[nH]1 [Compound S61]
IC50 [1]: 290 µM

O=c1[nH]c(=S)[nH]c2cnccc12 [Compound S62]
IC50 [1]: 170 µM
